{"source": "patent EP0668759B1", "about": "“TRANSDERMAL DELIVERY OF KETOROLAC” (Neurogesx, Inc., priority 1992, dated 1994)", "key": {"[1]": {"details": "approximate; cited from earlier work"}, "[2]": {"details": "in the presence of light; cited from earlier work"}, "[3]": {"format": "in vitro ADME, Human", "procedure": "Skin permeation rates of various ketorolac/enhancer formulations were determined using flow through diffusion cells with an active area of 1 cm^2 and a receiving column of 3 ml. The receptor fluid, isotonic saline, was pumped into and through the cells by a peristaltic pump. Samples were collected in glass vials arranged in an automatic fraction collector. Human skin was placed on the lower half of the diffusion cell with the stratum corneum facing the donor compartment. The test solution or transdermal device was placed on the stratum corneum and the amount of drug permeated across the skin (µg/cm^2·hr) was calculated from the cumulative release."}, "[4]": {"details": "water and methanol; cited from earlier work"}}, "data": [{"smiles": "O=C(c1ccccc1)c1ccc2n1CCC2C(=O)O", "note": "(racemic) [ketorolac]", "values": [{"measurement": "half-life", "setting": "[1]", "result": "~4", "unit": "h"}, {"measurement": "stability to light", "setting": "[2]", "result": "degrades in the presence of light"}]}, {"smiles": "O=C(c1ccccc1)c1ccc2n1CC[C@@H]2C(=O)O", "note": "[(-) ketorolac]", "values": [{"measurement": "permeability to human skin", "setting": "[3]", "result": "as permeable to human skin as the racemate"}]}, {"smiles": "O=C(c1ccccc1)c1ccc2n1CCC2C(=O)O", "note": "(stereo not shown) [Ketorolac tromethamine]", "values": [{"measurement": "solubility", "setting": "[4]", "result": "freely soluble in water and methanol"}]}]}
